Experimental data reported in patent US6455760B1, “Expression of flavin-containing monoxygenases in plants” (The Salk Institute of Biological Studies, priority 2000, dated 2002).
Entries after “also recorded” stand apart in the source; their conditions may differ.

What was measured:
[1] = test system: Arabidopsis WT and yucca mutants; type: in vivo, Arabidopsis thaliana; settings: for sensitivity of yucca mutants to tryptophan analogs: yucca mutants compared with normal toxicity to plants
Experimental: Enhanced expression of the YUCCA gene overproduces auxin. […] Massive root growth was observed when yucca explants grew in Murashige and Skoog (MS) media. Callus was induced by adding cytokinin, and young yucca plants that are regenerated in MS media containing cytokinin. A GUS reporter gene controlled by an auxin responsive element was expressed at much higher level in yucca. […] In addition, YUCCA appears to be involved in tryptophan-dependent auxin synthesis. […] In the presence of 100 μM 5-methyl tryptophan, WT plant material died while yucca survived.

yucca mutant = type: in vivo, Arabidopsis thaliana
[2] = target: T1, recombinant YUCCA gene product (SEQ ID NO. 2) (Arabidopsis thaliana, UniProt Q9SZY8); assay: FMO activity assay of recombinant YUCCA gene product with tryptamine (TLC, mass spectroscopy); type: biochemical; settings: 2 mM tryptamine, 1 mM NADP+, glucose-6-phosphate, glucose-6-phosphate dehydrogenase, 37° C.
T1 construct: 2, was recovered from the E. coli overexpression system; made in house; host or cells: E. coli (vector pMalC2)
T1 sequence (Q9SZY8 1-414): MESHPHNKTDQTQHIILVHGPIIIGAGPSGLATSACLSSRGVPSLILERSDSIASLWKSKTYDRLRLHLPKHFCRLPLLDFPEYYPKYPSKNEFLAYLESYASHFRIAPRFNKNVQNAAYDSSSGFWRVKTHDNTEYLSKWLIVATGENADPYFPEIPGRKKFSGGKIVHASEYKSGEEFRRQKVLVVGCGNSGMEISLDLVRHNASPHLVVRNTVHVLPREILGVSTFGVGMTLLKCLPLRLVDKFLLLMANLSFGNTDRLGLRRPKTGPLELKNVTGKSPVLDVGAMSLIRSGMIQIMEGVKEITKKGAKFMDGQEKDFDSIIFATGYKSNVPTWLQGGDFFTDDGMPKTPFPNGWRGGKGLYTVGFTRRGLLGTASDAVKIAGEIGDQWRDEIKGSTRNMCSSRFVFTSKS
From the text: Enzymatic activity of the YUCCA gene product. In one experiment, the YUCCA gene was transformed into an E. coli overexpression vector and the recombinant YUCCA gene product, a polypeptide having the amino acid sequence of SEQ ID NO. 2, was recovered from the E. coli overexpression system. […] Thus, the amino acid sequence of SEQ ID NO: 2 can be used to metabolize tryptamine, whether endogenous or exogenous, as well as to generate N-hydroxyl tryptamine.
Effect of YUCCA overexpression in E. coli on detectable FMO activity. To test the enzymatic activity of the YUCCA gene product, YUCCA (SEQ ID NO. 1) was transformed into an E. coli overexpression vector pMalC2 and the recombinant YUCCA gene product was recovered, using the method of Brunelle et al., (Drug Metab Dispos (1997) 25:1001). For activity assays, the recombinant YUCCA gene product was incubated with 2 mM tryptamine, 1 mM NADP^+, 1 mM glucose-6-phosphate, and glucose-6-phosphate dehydrogenase at 37° C. Reactions were stopped by adding an equal volume of methanol. Substrate and products were separated by thin-layer-chromatography (TLC) with CH2CL2/methanol/TEA (75:20:5). The product was eluted from TLC plates and mass spectroscopy was performed to determine the molecular mass of the product.

[3] = test system: Arabidopsis WT and yucca mutants; assay: Auxin transport block by NPA in growth medium, club root development; type: in vivo, Arabidopsis thaliana
From the text: It was also discovered that auxin transport in yucca was blocked by application of transport inhibitor naphthylthalamic acid (NPA), resulting in yucca mutants having a giant root, called a “club root” due to its thick, short appearance. This club root was substantially thicker than the regular yucca root, which is already thicker than the WT root. […] The club root produced by blocking auxin transport in yucca mutants may provide an important tool for studying root growth and development.

`Cc1ccc2[nH]cc(C[C@H](N)C(=O)O)c2c1` [5-methyl tryptophan] was tested, and the “survival of WT plant material” value ([1]; WT, in the presence of 100 μM) was “died”, the survival of yucca ([1]; yucca mutant, in the presence of 100 μM) was “survived” and the “sensitivity of yucca mutants to tryptophan analogs” value [1] was “less sensitive”.
With `C=C` [Ethylene] the “effect on the yucca mutant” value (yucca mutant; ethylene treatment) was “little effect”.
`N[C@@H](Cc1c[nH]c2ccc(F)cc12)C(=O)O` [5-fluoro-tryptophan] was tested, and the “sensitivity of yucca mutants to tryptophan analogs” value [1] was “less sensitive”.
With `NCCc1c[nH]c2ccccc12` [tryptamine] the “substrate conversion by recombinant YUCCA gene product” value [2] was “able to convert tryptamine to N-hydroxyl tryptamine; also recorded: use tryptamine as a substrate to generate N-hydroxyl tryptamine”.
With `O=C(O)c1ccccc1C(=O)Nc1cccc2ccccc12` [NPA, naphthylthalamic acid] the “club root development in wild type” value ([3]; Wild type (WT) Arabidopsis) was “did not develop a club root”, the “club root development in yucca mutants” value ([3]; 50 μM in the growth medium) was “multiple club roots” and the “club root development in yucca mutants” value ([3]; 100 μM in the growth medium) was “a single club root”.
`NC1(C(=O)O)CC1` [ACC, 1-aminocyclopropane-1-carboxylate] was tested, and the “effect on yucca cotyledon” value (yucca mutant; 5 μM) was “did not change the appearance of the yucca cotyledon” and the “effect on yucca hypocotyl” value (yucca mutant; 5 μM) was “suppressed the elongated yucca hypocotyl”.
